Results on 22 compounds are retold here after patent US7319109B2, “Farnesoid X receptor agonists” (Smith Kline Beecham Corporation, priority 2002, dated 2008).

Structures are written as SMILES.

The test addresses T1, Human FXRα Ligand Binding Domain (FXRα LBD) (Homo sapiens, UniProt Q96RI1).
T1 construct: polyhistidine (N); made in house; host or cells: E. coli BL21 (DE3), pRSET-A vector
T1 sequence (Q96RI1 222-472 isoform Q96RI1-2): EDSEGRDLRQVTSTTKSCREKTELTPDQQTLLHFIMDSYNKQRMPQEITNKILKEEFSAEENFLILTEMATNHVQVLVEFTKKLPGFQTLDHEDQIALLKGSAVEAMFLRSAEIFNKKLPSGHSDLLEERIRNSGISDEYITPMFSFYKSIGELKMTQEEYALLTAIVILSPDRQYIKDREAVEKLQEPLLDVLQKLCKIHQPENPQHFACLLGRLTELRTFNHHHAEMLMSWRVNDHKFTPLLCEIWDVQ
Briefly: FXR Affinity Binding Assay: ligand mediated cofactor peptide (SRC-1 LCD2, 676-700) interaction, time resolved fluorescence. The following applies: FXRα LBD-APC / europium labeled SRC-1 peptide, TRF signal, at least 2 hours at room temperature; read-out: Activity (pEC50) (converted). The protocol: Determination of a ligand mediated cofactor peptide interaction to quantify ligand binding to the nuclear receptor Farnasoid X Receptor (FXR). The method measures the ability of putative ligands to modulate the interaction between the purified bacterial expressed FXRα (LBD) and a synthetic biotinylated peptide based on residues 676-700 of SRC-1(LCD2, 676-700). […] Detection of the associated complex is measured by time resolved fluorescence (TRF). The purified LBD of FXR is labeled with biotin then mixed with stoichiometric amounts of APC labeled streptavidin (Molecular Probes). The biotinylated peptide is then mixed with a ½ stoichiometric amount of europium labeled streptavidin (Wallac Inc). Each is then blocked with a 5 fold excess of biotin and allowed to equilibrate for 15 min. Equimolar amounts of receptor and peptide are mixed together and allowed to equilibrate for at least 30 min prior to the addition to either a variable or constant concentrations of the sample for which the affinity is to be determined. After equilibration, the time-resolved fluorescent signal is quantitated using a fluorescent plate reader. The affinity of the test compound is estimated from a plot of fluorescence versus concentration of test compound added.
Ligands that promote the complex formation induce a concentration-dependent increase in time-resolved fluorescent signal.
Human FXRα Ligand Binding Domain (FXRα LBD) was expressed in E.coli strain BL21 (DE3) as an amino-terminal polyhistidine tagged fusion protein. Expression was under the control of an IPTG inducible T7 promoter. DNA encoding this recombinant protein was subcloned into the pRSET-A expression vector (Invitrogen). The coding sequence of Human FXRα LBD was derived from Genbank accession number U 68233 (amino acids 222 to 472).
Routinely, 30-40 g cell paste (equivalent to 2-3 liters of the fermentation batch) was resuspended in 200-250 mL TBS, pH 7.2 (25mM Tris, 150 mM NaCl). Cells were lysed by passing 3 times through a French Press and cell debris was removed by centrifugation (30 minutes, 20,000 g, 4° C.). The cleared supernatant was filtered through course pre-filters, and TBS, pH 7.2, containing 500 mM imidazole was added to obtain a final imidazole concentration of 50 mM. This lysate was loaded onto a column (6×8 cm) packed with Sepharose [Ni^++ charged]Chelation resin (Pharmacia) and pre-equilibrated with TBS pH 7.21 50 mM imidazole. After washing to baseline absorbance with equilibration buffer, the column was washed with one column volume of TBS pH 7.2 containing 90 mM imidazole. FXRαLBD was eluted directly with 365 mM imidazole. Column fractions were pooled and dialyzed against TBS, pH 7.2, containing 0.5 mM EDTA and 5 mM DTT. The dialyzed protein sample was concentrated using Centri-prep 10 K (Amicon) and subjected to size exclusion, using a column (3×90 cm) packed with Sepharose S-75 resin (Pharmacia) pre-equilibrated with TBS, pH 7.2, containing 0.5 mM EDTA and 5 mM DTT.
Purified FXRα LBD was desalted/buffer exchanged using PD-10 gel filtration columns into PBS [100 mM NaPhosphate, pH 7.2, 150 mM NaCl]. FXRα LBD was diluted to approximately 10 μM in PBS and five-fold molar excess of NHS-LC-Biotin (Pierce) was added in a minimal volume of PBS. This solution was incubated with gentle mixing for 30 minutes at room temperature. The biotinylation modification reaction was stopped by the addition of 2000× molar excess of Tris-HCl, pH 8. The modified FXRα LBD was dialyzed against 4 buffer changes, each of at least 50 volumes, PBS containing 5 mM DTT, 2 mM EDTA and 2% sucrose.
As for `COC(=O)c1cccc(C(=O)Nc2ccc(OCc3c(-c4c(Cl)cccc4Cl)noc3C(C)C)cc2Cl)c1` [Example 24, Methyl 3-[(2-chloro-4-{[3-(2,6-dichlorophenyl)-5-isopropyl-4-isoxazolyl]methoxy}anilino)carbonyl]benzoate], the EC50 is 0.102 to 1 µM. On to `COC(=O)c1ccc(C(=O)Nc2ccc(OCc3c(-c4c(Cl)cccc4Cl)noc3C(C)C)cc2Cl)cc1` [Example 25, Methyl 4-[(2-chloro-4-{[3-(2,6-dichlorophenyl)-5-isopropyl-4-isoxazolyl]methoxy}anilino)carbonyl]benzoate], for which the EC50 is 0.102 to 1 µM.

As for `Cc1cc(OCc2c(-c3c(Cl)cccc3Cl)noc2C(C)C)ccc1NC(=O)c1cccc(C(=O)O)c1` [Example 26, 3-[(4-{[3-(2,6-Dichlorophenyl)-5-isopropyl-4-isoxazolyl]methoxy}-2-methylanilino)carbonyl]benzoic acid], the EC50 was 1.02 to 10 µM. On to `Cc1cc(OCc2c(-c3c(Cl)cccc3Cl)noc2C(C)C)ccc1NC(=O)c1ccc(C(=O)O)cc1` [Example 27, 4-[(4-{[3-(2,6-Dichlorophenyl)-5-isopropyl-4-isoxazolyl]methoxy}-2-methylanilino)carbonyl]benzoic acid], for which the EC50 was 0.102 to 1 µM. Next, `CC(C)c1onc(-c2c(Cl)cccc2Cl)c1COc1ccc(NC(=O)c2cccc(C(=O)O)c2)c(Cl)c1` [Example 28, 3-[(2-Chloro-4-{[3-(2,6-dichlorophenyl)-5-isopropyl-4-isoxazolyl]methoxy}anilino)carbonyl]benzoic acid]: 0.102 to 1 µM; `Cc1cc(OCc2c(-c3c(Cl)cccc3Cl)noc2C(C)C)ccc1N(C)C(=O)c1cccc(C(=O)O)c1` [Example 29, 3-[(4-{[3-(2,6-Dichlorophenyl)-5-isopropyl-4-isoxazolyl]methoxy}-2-dimethylanilino)carbonyl]benzoic acid]: 0.102 to 1 µM; `CC(C)c1onc(-c2c(Cl)cccc2Cl)c1COc1ccc(N(C)C(=O)c2cccc(C(=O)O)c2)c(Cl)c1` [Example 30, 3-[(2-Chloro-4-{[3-(2,6-dichlorophenyl)-5-isopropyl-4-isoxazolyl]methoxy}methylanilino)carbonyl]benzoic acid]: 0.102 to 1 µM. As for `CC(C)c1onc(-c2c(Cl)cccc2Cl)c1COc1ccc(N(C)C(=O)c2ccc(C(=O)O)cc2)c(Cl)c1` [Example 31, 4-[(2-Chloro-4-{[3-(2,6-dichlorophenyl)-5-isopropyl-4-isoxazolyl]methoxy}methylanilino)carbonyl]benzoic acid], the EC50 is 0.102 to 1 µM. Take `Cc1cc(OCc2c(-c3ccccc3OC(F)(F)F)noc2C(C)C)ccc1N(C)C(=O)c1cccc(C(=O)O)c1` [Example 32, 3-{[4-({5-Isopropyl-3-[2-(trifluoromethoxy)phenyl]-4-isoxazolyl}methoxy)-2-dimethylanilino]carbonyl}benzoic acid]: the EC50 is 0.102 to 1 µM. In the case of `Cc1cc(OCc2c(-c3ccccc3OC(F)(F)F)noc2C(C)C)ccc1NC(=O)c1cccc(C(=O)O)c1` [Example 33, 3-{[4-({5-Isopropyl-3-[2-(trifluoromethoxy)phenyl]-4-isoxazolyl}methoxy)-2-methylanilino]carbonyl}benzoic acid] it was 0.102 to 1 µM. `CC(C)c1onc(-c2ccccc2OC(F)(F)F)c1COc1ccc(N(C)C(=O)c2cccc(C(=O)O)c2)c(Cl)c1` [Example 34, 3-{[2-Chloro-4-({5-isopropyl-3-[2-(trifluoromethoxy)phenyl]-4-isoxazolyl}methoxy)methylanilino]carbonyl}benzoic acid]: the EC50 is 0.102 to 1 µM. For `COC(=O)c1cccc(S(=O)(=O)N(C)c2ccc(OCc3c(-c4c(Cl)cccc4Cl)noc3C(C)C)cc2C)c1` [Example 35, Methyl 3-{[(4-{[3-(2,6-dichlorophenyl)-5-isopropylisoxazol-4-yl]methoxy}-2-methylphenyl)(methyl)amino]sulfonyl}benzoate], the EC50 is 0.102 to 1 µM. `COC(=O)c1cccc(S(=O)(=O)Nc2ccc(OCc3c(-c4c(Cl)cccc4Cl)noc3C(C)C)cc2Cl)c1` [Example 36, Methyl 3-{[(2-chloro-4-{[3-(2,6-dichlorophenyl)-5-isopropylisoxazol-4-yl]methoxy}-phenyl)amino]sulfonyl}benzoate]: the EC50 is 0.102 to 1 µM.

In the case of `COC(=O)c1cccc(S(=O)(=O)Nc2ccc(OCc3c(-c4c(Cl)cccc4Cl)noc3C(C)C)cc2C)c1` [Example 37, Methyl 3-{[1(4-{[3-(2,6-dichlorophenyl)-5-isopropylisoxazol-4-yl]methoxy}-2-methylphenyl)amino]sulfonyl}benzoate], the EC50 is 0.102 to 1 µM. Next, `COC(=O)c1cccc(S(=O)(=O)Nc2ccc(OCc3c(-c4c(Cl)cccc4Cl)noc3C(C)C)cc2)c1` [Example 38, Methyl 3-{[(4-{[3-(2,6-dichlorophenyl)-5-isopropylisoxazol-4yl]methoxy}phenyl)amino]-sulfonyl}benzoate]: 0.102 to 1 µM. On to `Cc1cc(OCc2c(-c3c(Cl)cccc3Cl)noc2C(C)C)ccc1NS(=O)(=O)c1cccc(C(=O)O)c1` [Example 39, 3-{[(4-{[3-(2,6-Dichlorophenyl)-5-isopropylisoxazol-4-yl]methoxy}-2-methylphenyl)-amino]sulfonyl}benzoic acid], for which the EC50 is 0.102 to 1 µM. With `CC(C)c1onc(-c2c(Cl)cccc2Cl)c1COc1ccc(NS(=O)(=O)c2cccc(C(=O)O)c2)cc1` [Example 40, 3-{[(4-{[3-(2,6-Dichlorophenyl)-5-isopropylisoxazol-4-yl]methoxy}phenyl)amino]-sulfonyl}benzoic acid], the EC50 was 1.02 to 10 µM. As for `COC(=O)c1cccc(S(=O)(=O)N(C)c2ccc(OCc3c(-c4c(Cl)cccc4Cl)noc3C(C)C)cc2Cl)c1` [Example 41, Methyl 3-{[(2-chloro-4-{[3-(2,6-dichlorophenyl)-5-isopropylisoxazol-4-yl]methoxy}-phenyl)(methyl)amino]sulfonyl}benzoate], the EC50 was 0.102 to 1 µM. In the case of `COC(=O)c1cccc(S(=O)(=O)N(C)c2ccc(OCc3c(-c4c(Cl)cccc4Cl)noc3C(C)C)cc2)c1` [Example 42, Methyl 3-{[(4-{[3-(2,6-dichlorophenyl)-5-isopropylisoxazol-4-yl]methoxy}phenyl)-(methyl)amino]sulfonyl}benzoate] it was 0.102 to 1 µM; in that of `CCN(c1ccc(OCc2c(-c3c(Cl)cccc3Cl)noc2C(C)C)cc1Cl)S(=O)(=O)c1cccc(C(=O)OC)c1` [Example 43, Methyl 3-{[(2-chloro-4-{[3-(2,6-dichlorophenyl)-5-isopropylisoxazol-4-yl]methoxy}-phenyl)(ethyl)amino]sulfonyl}benzoate], 1.02 to 10 µM; in that of `CCN(c1ccc(OCc2c(-c3c(Cl)cccc3Cl)noc2C(C)C)cc1C)S(=O)(=O)c1cccc(C(=O)OC)c1` [Example 44, Methyl 3-{[(4-{[3-(2,6-dichlorophenyl)-5-isopropylisoxazol-4-yl]methoxy}-2-methyl-phenyl)(ethyl)amino]sulfonyl}benzoate], 0.102 to 1 µM. Consider `CCN(c1ccc(OCc2c(-c3c(Cl)cccc3Cl)noc2C(C)C)cc1)S(=O)(=O)c1cccc(C(=O)OC)c1` [Example 45, Methyl 3-{[(4-{[3-(2,6-dichlorophenyl)-5-isopropylisoxazol-4-yl]methoxy}phenyl)(ethyl)-amino]sulfonyl}benzoate], for which the EC50 was 1.02 to 10 µM.
